Here are results for 22 compounds from patent US20240246946A1, “MODULATORS OF TREX1” (Constellation Pharmaceuticals, Inc., priority 2021, published 2024).

Some results are limits rather than exact numbers.

For one experiment, the target named is T1, full length human TREX1 (Homo sapiens, UniProt Q9NSU2).
T1 construct: N-terminally His-Tev tagged full length human TREX1; made in house; host or cells: E. coli
T1 sequence (Q9NSU2 1-314): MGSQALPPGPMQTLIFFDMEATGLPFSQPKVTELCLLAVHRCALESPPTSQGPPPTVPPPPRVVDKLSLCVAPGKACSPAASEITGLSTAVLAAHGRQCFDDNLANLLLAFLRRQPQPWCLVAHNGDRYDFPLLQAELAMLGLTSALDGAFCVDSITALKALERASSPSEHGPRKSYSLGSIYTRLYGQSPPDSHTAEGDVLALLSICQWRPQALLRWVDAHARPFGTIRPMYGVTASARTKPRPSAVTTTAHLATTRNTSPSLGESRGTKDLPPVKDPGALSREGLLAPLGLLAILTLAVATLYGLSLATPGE
As to the kind of experiment: hTREX1 Biochemical Assay (fluorescence, dsDNA substrate degradation). As to conditions: biochemical, read-out: hTREX1 IC50. The gist of the method: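 Fluorescence rises as enzyme degrades a quenched TEX615-labelled dsDNA substrate (60 nM) in 50 mM Tris, 150 mM NaCl, 5 mM MgCl2, pH 7.4. Full-length His-Tev-tagged human TREX1, 4 pM, sits with compound 4 hours at 25° C before substrate; reaction 18 hours, stopped with EDTA.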

Experiment [1] addresses T2, human TREX2 (residues M44-A279) (Homo sapiens, UniProt Q9BQ50).
T2 construct: human TREX2 (residues M44-A279, expressed in E. coli); made in house; host or cells: E. coli
T2 sequence (Q9BQ50 44-279 isoform Q9BQ50-1): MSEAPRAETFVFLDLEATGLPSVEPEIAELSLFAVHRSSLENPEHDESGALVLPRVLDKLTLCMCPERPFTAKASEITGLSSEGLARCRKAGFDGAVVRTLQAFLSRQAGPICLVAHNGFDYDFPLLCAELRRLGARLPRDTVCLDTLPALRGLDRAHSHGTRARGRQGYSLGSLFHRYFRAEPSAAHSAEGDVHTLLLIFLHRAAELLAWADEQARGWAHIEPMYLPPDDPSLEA
As to the kind of experiment: hTREX2 Biochemical Assay (fluorescence, dsDNA substrate degradation). As to conditions: biochemical selectivity for hTREX1 vs hTREX2. The procedure:
Degradation of the dsDNA liberates free fluorophore to produce a fluorescent signal. Specifically, 7.5 μL of N-terminally His-Tev tagged human TREX2 (residues M44-A279, expressed in E. coli and purified in house) in reaction buffer (50 mM Tris, 150 mM NaCl, 2 mM DTT, 0.1 mg/mL BSA, 0.01% (w/v) Tween-20, 5 mM MgCl2, pH 7.4) was added to a 384-well Black ProxiPlate Plus (PerkinElmer) which already contained compound (150 nL) at varying concentrations as a 10 point dose-response in DMSO. The plate was incubated at 25° C. for 4 hours. Reactions were initiated by adding 7.5 μL of dsDNA substrate (Strand A: 5′ TEX615/GCT AGG CAG 3′; Strand B: 5′ CTG CCT AGC/IAbRQSp (IDT)) in reaction buffer. Final concentrations were 50 pM TREX2, 60 nM dsDNA substrate in reaction buffer with 1.0% DMSO (v/v). After 18 hours at 25° C., reactions were quenched by the addition of 2 μL of 500 mM EDTA. Final concentrations in the quenched reaction mixture were 44 pM TREX2, 53 nM DNA and 59 mM EDTA in a volume of 17 μL. After a 5-minute incubation at room temperature, plates were read in an EnVision plate reader (PerkinElmer) measuring fluorescence at 615 nm following excitation w/570 nm light.

The target of the next experiment is T3, full length mouse TREX1 (Mus musculus, UniProt Q91XB0).
T3 construct: N-terminally His-Tev tagged full length mouse TREX1; made in house; host or cells: E. coli
T3 sequence (Q91XB0 1-314): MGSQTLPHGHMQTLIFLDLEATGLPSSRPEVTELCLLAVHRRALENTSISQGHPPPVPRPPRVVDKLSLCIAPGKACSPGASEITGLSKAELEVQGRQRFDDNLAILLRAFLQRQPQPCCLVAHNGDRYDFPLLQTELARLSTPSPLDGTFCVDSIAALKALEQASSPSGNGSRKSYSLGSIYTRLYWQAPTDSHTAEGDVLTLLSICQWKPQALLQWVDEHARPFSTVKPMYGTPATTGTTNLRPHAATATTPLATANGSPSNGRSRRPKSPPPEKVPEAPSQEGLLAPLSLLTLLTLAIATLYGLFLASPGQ
Put plainly: mTREX1 Biochemical Assay (fluorescence, dsDNA substrate degradation). Conditions: biochemical, read-out: mTREX1 IC50. In short, it runs like this:
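Reaction run 18 h at 25° C. with 60 nM TEX615/quencher-labelled dsDNA and 6 pM mouse TREX1 in Tris buffer (pH 7.4, 5 mM MgCl2, 1.0% DMSO), enzyme having sat 4 h with compound across 10 concentrations. EDTA quench; substrate degradation measured as fluorescence increase.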

For `CC(c1nc(C(=O)Nc2cnoc2)c(O)c(=O)n1C)C(c1cnn(C)c1)c1ccc(O)cc1C#N` (single isomer, unassigned) [Example 80 D2E2], the IC50 is 1 to 10 nM at full length human TREX1 and above 10 nM at full length mouse TREX1. Also, the “hTREX1 vs hTREX2 selectivity” value in experiment [1] is reported as “B (B = 25 to 50-fold selective for hTREX1)”.

In the case of `CC(c1nc(C(=O)Nc2cnoc2)c(O)c(=O)n1C)C(c1ccccc1Cl)n1cc(C(F)(F)F)cn1` (single isomer, unassigned) [Example 139 D1E2], the half-maximal inhibitory concentration (IC50) at full length human TREX1 and at full length mouse TREX1 was above 10 nM each time. Besides, the “hTREX1 vs hTREX2 selectivity” value in experiment [1] is reported as “A (A = <25 fold selective for hTREX1)”.

Consider `COCCn1ncc(C(c2cc(F)ccc2Cl)C(C)c2nc(C(=O)Nc3cnoc3)c(O)c(=O)n2C)c1C` (single isomer, unassigned) [Example 108 D1E2], for which the 50% inhibitory concentration (IC50) on full length human TREX1 and at full length mouse TREX1 was above 10 nM each time. For the same compound, in experiment [1], the “hTREX1 vs hTREX2 selectivity” value is given as “A (A = <25 fold selective for hTREX1)”.

As for `COCCn1cc(C(c2cc(F)c(F)cc2Cl)C(C)c2nc(C(=O)Nc3cnoc3)c(O)c(=O)n2C)cn1` (single isomer, unassigned) [Example 73 D1E1], the 50% inhibitory concentration (IC50) at full length human TREX1 is below 1 nM; on full length mouse TREX1 it was 1 to 10 nM. In addition, the “hTREX1 vs hTREX2 selectivity” value in experiment [1] is on record as “C (C = >50 fold selective for hTREX1)”.

On to `Cc1cn(C(c2ccccc2Cl)C(C)c2nc(C(=O)Nc3cnoc3)c(O)c(=O)n2C)cn1` (single isomer, unassigned) [Example 142 D1E1], for which the IC50 at full length human TREX1 and at full length mouse TREX1 was above 10 nM throughout. For the same compound, the “hTREX1 vs hTREX2 selectivity” value in experiment [1] is “A (A = <25 fold selective for hTREX1)”.

`Cc1ncc(C(c2cc(F)ccc2C#N)C(C)c2nc(C(=O)Nc3cnoc3)c(O)c(=O)n2C)nc1C` (single isomer, unassigned) [Example 124 D2E2]: the IC50 at full length human TREX1 and at full length mouse TREX1 was above 10 nM in each case. For the same compound, the “hTREX1 vs hTREX2 selectivity” value in experiment [1] was “A (A = <25 fold selective for hTREX1)”.

As to `Cc1ncc(C(c2ccccc2C#N)C(C)c2nc(C(=O)Nc3cnoc3)c(O)c(=O)n2C)nc1C` (single isomer, unassigned) [Example 81 D1E1], the IC50 at full length human TREX1 and at full length mouse TREX1 was above 10 nM each time. For the same compound, the “hTREX1 vs hTREX2 selectivity” value in experiment [1] is given as “A (A = <25 fold selective for hTREX1)”.

Take `Cc1nn(C)c(C)c1C(c1cc(F)ccc1Cl)C(C)c1nc(C(=O)Nc2cnoc2)c(O)c(=O)n1C` (single isomer, unassigned) [Example 154 D1E2]: the IC50 at full length human TREX1 and at full length mouse TREX1 was above 10 nM each time. Further, the “hTREX1 vs hTREX2 selectivity” value in experiment [1] is on record as “A (A = <25 fold selective for hTREX1)”.

With `CC(c1nc(C(=O)Nc2cnoc2)c(O)c(=O)n1C)C(c1ccccc1Cl)n1cccn1` (single isomer, unassigned) [Example 45 D1E2], the 50% inhibitory concentration (IC50) at full length human TREX1 and at full length mouse TREX1 was above 10 nM throughout. Also, the “hTREX1 vs hTREX2 selectivity” value in experiment [1] was “A (A = <25 fold selective for hTREX1)”.

On to `CC(c1nc(C(=O)Nc2cnoc2)c(O)c(=O)n1C)C(c1nnn(C)n1)c1ccccc1C#N` (single isomer, unassigned) [Example 79 D2E2], for which the IC50 on full length human TREX1 and at full length mouse TREX1 was above 10 nM throughout. Also, the “hTREX1 vs hTREX2 selectivity” value in experiment [1] was “A (A = <25 fold selective for hTREX1)”.

For the compound `CC(c1nc(C(=O)Nc2cnoc2)c(O)c(=O)n1C)C(c1cnc(C(F)(F)F)cn1)c1ccccc1C#N` (single isomer, unassigned) [Example 118 D1E2], the IC50 on full length human TREX1 and on full length mouse TREX1 was above 10 nM throughout. Further, the “hTREX1 vs hTREX2 selectivity” value in experiment [1] was “A (A = <25 fold selective for hTREX1)”.

For the compound `Cc1ccn(C(c2cc(F)ccc2Cl)C(C)c2nc(C(=O)Nc3cnoc3)c(O)c(=O)n2C)n1` (single isomer, unassigned) [Example 146 D1E2], the IC50 at full length human TREX1 and at full length mouse TREX1 was above 10 nM throughout. The “hTREX1 vs hTREX2 selectivity” value in experiment [1] is on record as “A (A = <25 fold selective for hTREX1)”.

As for `CC(c1nc(C(=O)Nc2cnoc2)c(O)c(=O)n1C)C(c1cc(F)ccc1Cl)c1cn(C)nc1C#N` (single isomer, unassigned) [Example 89 D1E1], the IC50 on full length human TREX1 and at full length mouse TREX1 was above 10 nM throughout. In addition, the “hTREX1 vs hTREX2 selectivity” value in experiment [1] was “A (A = <25 fold selective for hTREX1)”.

For `CC(c1nc(C(=O)Nc2cnoc2)c(O)c(=O)n1C)C(c1cnn(CC(C)(C)O)c1)c1ccccc1Cl` (single isomer, unassigned) [Example 86 D2E1], the IC50 at full length human TREX1 and at full length mouse TREX1 was above 10 nM throughout. Further, the “hTREX1 vs hTREX2 selectivity” value in experiment [1] was “A (A = <25 fold selective for hTREX1)”.

With `Cc1ccnn1C(c1cc(F)ccc1Cl)C(C)c1nc(C(=O)Nc2cnoc2)c(O)c(=O)n1C` (single isomer, unassigned) [Example 145 D1E2], the IC50 at full length human TREX1 and at full length mouse TREX1 was above 10 nM throughout. In addition, the “hTREX1 vs hTREX2 selectivity” value in experiment [1] is reported as “A (A = <25 fold selective for hTREX1)”.

On to `Cc1cc(C(c2cc(F)ccc2C#N)C(C)c2nc(C(=O)Nc3cnoc3)c(O)c(=O)n2C)n(C)n1` (single isomer, unassigned) [Example 111 D2E2], for which the 50% inhibitory concentration (IC50) on full length human TREX1 and on full length mouse TREX1 was above 10 nM each time. Also, the “hTREX1 vs hTREX2 selectivity” value in experiment [1] is listed as “A (A = <25 fold selective for hTREX1)”.

As for `Cc1nn(C)c(C)c1C(c1cc(F)ccc1C#N)C(C)c1nc(C(=O)Nc2cnoc2)c(O)c(=O)n1C` (single isomer, unassigned) [Example 109 D1E2], the IC50 on full length human TREX1 and on full length mouse TREX1 was above 10 nM throughout. Moreover, the “hTREX1 vs hTREX2 selectivity” value in experiment [1] was “A (A = <25 fold selective for hTREX1)”.

As to `CC(c1nc(C(=O)Nc2cnoc2)c(O)c(=O)n1C)C(c1cnn(C)c1)c1ccc(F)cc1C#N` (single isomer, unassigned) [Example 15 D2E1], the IC50 on full length human TREX1 and on full length mouse TREX1 was above 10 nM throughout. Besides, the “hTREX1 vs hTREX2 selectivity” value in experiment [1] is given as “B (B = 25 to 50-fold selective for hTREX1)”.

On to `CCn1cc(C(c2cc(F)ccc2C#N)C(C)c2nc(C(=O)Nc3cnoc3)c(O)c(=O)n2C)cn1` (single isomer, unassigned) [Example 17 D2E1], for which the IC50 at full length human TREX1 and at full length mouse TREX1 was above 10 nM each time. For the same compound, in experiment [1], the “hTREX1 vs hTREX2 selectivity” value is given as “B (B = 25 to 50-fold selective for hTREX1)”.

For the compound `CC(c1nc(C(=O)Nc2cnoc2)c(O)c(=O)n1C)C(c1nnn(C)n1)c1ccccc1C#N` (single isomer, unassigned) [Example 79 D1E1], the 50% inhibitory concentration (IC50) at full length human TREX1 and at full length mouse TREX1 was above 10 nM in each case. Further, in experiment [1], the “hTREX1 vs hTREX2 selectivity” value is reported as “A (A = <25 fold selective for hTREX1)”.

`Cc1nnc(C(c2ccccc2Cl)C(C)c2nc(C(=O)Nc3cnoc3)c(O)c(=O)n2C)o1` (single isomer, unassigned) [Example 156 D1E2]: the IC50 on full length human TREX1 and on full length mouse TREX1 was above 10 nM each time. In experiment [1], the “hTREX1 vs hTREX2 selectivity” value is “A (A = <25 fold selective for hTREX1)”.

Turning to `Cc1cc(C(c2cc(F)ccc2C#N)C(C)c2nc(C(=O)Nc3cnoc3)c(O)c(=O)n2C)nn1C` (single isomer, unassigned) [Example 112 D1E2], the IC50 on full length human TREX1 and on full length mouse TREX1 was above 10 nM in each case. The “hTREX1 vs hTREX2 selectivity” value in experiment [1] is on record as “A (A = <25 fold selective for hTREX1)”.
